Assay results: the supplement of paper PMC10307832

Experiments:
Assay in all cases: relative viability (nuclei count vs DMSO), 5 days (fraction); higher = more cells survive
[1] = compound: COC1=CC=C(C=C1)COC2=C(C=C(C=C2)CC3=CN=C(N=C3N)N)OC [GW-2580] + CC(=O)c1c(C)c2cnc(Nc3ccc(N4CCNCC4)cn3)nc2n(C2CCCC2)c1=O [Palbociclib] (partner 0.5 µM)
Outline: (§1)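 One day after seeding in 1536-well plates, lung cancer cell lines were dosed by pin tool. Dosing was either single-drug or a fixed anchor-drug dose plus five library-drug doses (not always all listed) in √10 steps. After 5 days, nuclei were stained in one fix-and-stain step and counted on 4× images, and relative viability is the nuclei count of treated wells over that of vehicle wells, given as the median of duplicate plates.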

[2] = compound: COC1=CC=C(C=C1)COC2=C(C=C(C=C2)CC3=CN=C(N=C3N)N)OC [GW-2580] + CS(=O)(=O)N1CCN(Cc2cc3nc(-c4cccc5[nH]ncc45)nc(N4CCOCC4)c3s2)CC1 [Pictilisib] (partner 1 µM)
Outline: as §1

[3] = compound: COC1=CC=C(C=C1)COC2=C(C=C(C=C2)CC3=CN=C(N=C3N)N)OC [GW-2580] + Nc1ncn([C@H]2C[C@H](O)[C@@H](CO)O2)c(=O)n1 [Decitabine] (partner 2 µM)
Outline: as §1

[4] = compound: Cc1cnc(Nc2ccc(OCCN3CCCC3)cc2)nc1Nc1cccc(S(=O)(=O)NC(C)(C)C)c1 [Fedratinib] + CC(=O)Nc1cccc(-n2c(=O)n(C3CC3)c(=O)c3c(Nc4ccc(I)cc4F)n(C)c(=O)c(C)c32)c1 [Trametinib] (partner 0.02 µM)
Outline: as §1

[5] = compound: Cc1cnc(Nc2ccc(OCCN3CCCC3)cc2)nc1Nc1cccc(S(=O)(=O)NC(C)(C)C)c1 [Fedratinib] + CS(=O)(=O)N1CCN(Cc2cc3nc(-c4cccc5[nH]ncc45)nc(N4CCOCC4)c3s2)CC1 [Pictilisib] (partner 1 µM)
Outline: as §1

[6] = compound: Cc1cnc(Nc2ccc(OCCN3CCCC3)cc2)nc1Nc1cccc(S(=O)(=O)NC(C)(C)C)c1 [Fedratinib] + C[C@@H](Oc1cc(-c2cnn(C3CCNCC3)c2)cnc1N)c1c(Cl)ccc(F)c1Cl [Crizotinib] (partner 1 µM)
Outline: as §1

UMC-11
relative viability ([1]; first compound 0.08 µM): 0.329
relative viability ([1]; first compound 0.8 µM): 0.352
relative viability ([1]; first compound 8 µM): 0.348
relative viability ([2]; first compound 0.08 µM): 0.828
relative viability ([2]; first compound 0.8 µM): 1.01
relative viability ([2]; first compound 2.53 µM): 0.695
relative viability ([2]; first compound 8 µM): 0.823
relative viability ([3]; first compound 0.08 µM): 0.617
relative viability ([3]; first compound 0.8 µM): 0.424
relative viability ([3]; first compound 8 µM): 0.586
relative viability ([4]; first compound 0.1 µM): 0.625
relative viability ([4]; first compound 0.3162 µM): 0.476
relative viability ([4]; first compound 1 µM): 0.52
relative viability ([5]; first compound 0.1 µM): 0.672
relative viability ([5]; first compound 0.3162 µM): 0.82
relative viability ([5]; first compound 1 µM): 0.397
relative viability ([6]; first compound 0.1 µM): 0.573
relative viability ([6]; first compound 0.3162 µM): 0.581
relative viability ([6]; first compound 1 µM): 0.379
